This note sets out measurements from US11034650B2, “Compounds useful for treating a Mannheimia haemolytica or Histophilus somni infection” (Intervet Inc., priority 2016, dated 2021).

In brackets after ≈: the same amount, converted by molar mass.

The subject of one assay is Mannheimia haemolytica MH 6357 (M7/2, reference strain, cattle infection strain). The assay can be described thus: MIC, broth-microdilution (CLSI VET01-A4), strain MH 6357. It is filed as cell-based. The note with it: Mannheimia haemolytica strain MH 6357, broth-microdilution; unit assumed. An outline of the steps:
(§1)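 Growth inhibition is scored visually on a doubling dilution series. The reported MIC corresponds to the lowest concentration free of turbidity, with results assessed under CLSI VET01-S3.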
`CC(C)(C(NC(=O)c1ccc(C#Cc2ccc(CNCc3cccnc3)cc2)cc1)C(=O)NO)[N+](=O)[O-]` (stereo not shown) [Compound 286] displayed an MIC MH 6357 of 0.4 µg/mL (≈ 0.798 µM).

Consider `COCCNCc1ccc(C#Cc2ccc(C(=O)N[C@@H](C(C)=O)C(=O)NO)cc2)cc1` [Compound 398], for which the MIC MH 6357 was 6.3 µg/mL (≈ 14.9 µM).

In the case of `CSC(C)(C)[C@H](NC(=O)c1ccc(C#Cc2ccc(CNCC(F)(F)F)nc2)cc1)C(=O)NO` [Compound 345], the MIC MH 6357 was 0.8 µg/mL (≈ 1.62 µM).

On to `CC[C@H](C)[C@H](NC(=O)c1ccc(C#Cc2ccc(CNCc3ccco3)cc2)cc1)C(=O)NO` [Compound 181], for which the MIC MH 6357 is 0.4 µg/mL (≈ 0.87 µM).

The subject of a further assay is Mannheimia haemolytica MH 6374 (ATCC 33396, reference strain). In words: MIC, broth-microdilution (CLSI VET01-A4), strain MH 6374. The note with it: Mannheimia haemolytica strain MH 6374, broth-microdilution; unit assumed. Format: cell-based. An outline of the steps: as §1
For orientation: Dilution methods test growth across graded concentrations, often in twofold steps.
As for `CC(C)(C(NC(=O)c1ccc(C#Cc2ccc(CNCc3cccnc3)cc2)cc1)C(=O)NO)[N+](=O)[O-]` (stereo not shown) [Compound 286], the MIC MH 6374 is 0.8 µg/mL (≈ 1.6 µM).

Consider `COCCNCc1ccc(C#Cc2ccc(C(=O)N[C@@H](C(C)=O)C(=O)NO)cc2)cc1` [Compound 398], for which the MIC MH 6374 was found to be 6.3 µg/mL (≈ 14.9 µM).

In turn, `CSC(C)(C)[C@H](NC(=O)c1ccc(C#Cc2ccc(CNCC(F)(F)F)nc2)cc1)C(=O)NO` [Compound 345] registered an MIC MH 6374 of 1.6 µg/mL (≈ 3.24 µM).

Molecule `CC[C@H](C)[C@H](NC(=O)c1ccc(C#Cc2ccc(CNCc3ccco3)cc2)cc1)C(=O)NO` [Compound 181] had an MIC MH 6374 of 0.8 µg/mL (≈ 1.74 µM).

For the next assay, the system named is Mannheimia haemolytica MH 10720 (154, BRD field isolate). In words: MIC, broth-microdilution (CLSI VET01-A4), strain MH 10720. Format: cell-based. The note with it: Mannheimia haemolytica strain MH 10720, broth-microdilution; unit assumed. An outline of the steps: as §1
With `CC(C)(C(NC(=O)c1ccc(C#Cc2ccc(CNCc3cccnc3)cc2)cc1)C(=O)NO)[N+](=O)[O-]` (stereo not shown) [Compound 286], the MIC MH 10720 is at most 0.1 µg/mL.

As to `COCCNCc1ccc(C#Cc2ccc(C(=O)N[C@@H](C(C)=O)C(=O)NO)cc2)cc1` [Compound 398], the MIC MH 10720 came out at 6.3 µg/mL (≈ 14.9 µM).

As for `CSC(C)(C)[C@H](NC(=O)c1ccc(C#Cc2ccc(CNCC(F)(F)F)nc2)cc1)C(=O)NO` [Compound 345], the MIC MH 10720 is at most 0.1 µg/mL.

In the case of `CC[C@H](C)[C@H](NC(=O)c1ccc(C#Cc2ccc(CNCc3ccco3)cc2)cc1)C(=O)NO` [Compound 181], the MIC MH 10720 was at most 0.1 µg/mL.

In a further assay the test system is Mannheimia haemolytica MH 12587 (1071, BRD field isolate, macrolide-resistance: erm+, E+). The assay can be described thus: MIC, broth-microdilution (CLSI VET01-A4), strain MH 12587. Format: cell-based. The note with it: Mannheimia haemolytica strain MH 12587, broth-microdilution; unit assumed. In outline: as §1
Regarding `CC(C)(C(NC(=O)c1ccc(C#Cc2ccc(CNCc3cccnc3)cc2)cc1)C(=O)NO)[N+](=O)[O-]` (stereo not shown) [Compound 286], the MIC MH 12587 worked out at 1.6 µg/mL (≈ 3.19 µM).

`COCCNCc1ccc(C#Cc2ccc(C(=O)N[C@@H](C(C)=O)C(=O)NO)cc2)cc1` [Compound 398] had an MIC MH 12587 of 1.6 µg/mL (≈ 3.78 µM).

As for `CSC(C)(C)[C@H](NC(=O)c1ccc(C#Cc2ccc(CNCC(F)(F)F)nc2)cc1)C(=O)NO` [Compound 345], the MIC MH 12587 stood at 1.6 µg/mL (≈ 3.24 µM).

`CC[C@H](C)[C@H](NC(=O)c1ccc(C#Cc2ccc(CNCc3ccco3)cc2)cc1)C(=O)NO` [Compound 181] had an MIC MH 12587 of 1.6 µg/mL (≈ 3.48 µM).

For another assay, the system named is Mannheimia haemolytica MH 13065 (XB0446-6003.9, BRD field isolate). In words: MIC, broth-microdilution (CLSI VET01-A4), strain MH 13065. Format: cell-based. As to conditions: Mannheimia haemolytica strain MH 13065, broth-microdilution; unit assumed. An outline of the steps:
as §1
Molecule `CC(C)(C(NC(=O)c1ccc(C#Cc2ccc(CNCc3cccnc3)cc2)cc1)C(=O)NO)[N+](=O)[O-]` (stereo not shown) [Compound 286] came in with an MIC MH 13065 of 0.4 µg/mL (≈ 0.798 µM).

In turn, `COCCNCc1ccc(C#Cc2ccc(C(=O)N[C@@H](C(C)=O)C(=O)NO)cc2)cc1` [Compound 398] displayed an MIC MH 13065 of 12.5 µg/mL (≈ 29.5 µM).

Consider `CSC(C)(C)[C@H](NC(=O)c1ccc(C#Cc2ccc(CNCC(F)(F)F)nc2)cc1)C(=O)NO` [Compound 345], for which the MIC MH 13065 came out at 0.8 µg/mL (≈ 1.62 µM).

With `CC[C@H](C)[C@H](NC(=O)c1ccc(C#Cc2ccc(CNCc3ccco3)cc2)cc1)C(=O)NO` [Compound 181], the MIC MH 13065 turned out to be 0.8 µg/mL (≈ 1.74 µM).

For another assay, the system named is Mannheimia haemolytica MH 13093 (XB0472-6014.1, BRD field isolate). In words: MIC, broth-microdilution (CLSI VET01-A4), strain MH 13093. It is filed as cell-based. As to conditions: Mannheimia haemolytica strain MH 13093, broth-microdilution; unit assumed. In outline: as §1
On to `CC(C)(C(NC(=O)c1ccc(C#Cc2ccc(CNCc3cccnc3)cc2)cc1)C(=O)NO)[N+](=O)[O-]` (stereo not shown) [Compound 286], for which the MIC MH 13093 came to 0.8 µg/mL (≈ 1.6 µM).

`COCCNCc1ccc(C#Cc2ccc(C(=O)N[C@@H](C(C)=O)C(=O)NO)cc2)cc1` [Compound 398] had an MIC MH 13093 of 25 µg/mL (≈ 59 µM).

As for `CSC(C)(C)[C@H](NC(=O)c1ccc(C#Cc2ccc(CNCC(F)(F)F)nc2)cc1)C(=O)NO` [Compound 345], the MIC MH 13093 was determined as 1.6 µg/mL (≈ 3.24 µM).

`CC[C@H](C)[C@H](NC(=O)c1ccc(C#Cc2ccc(CNCc3ccco3)cc2)cc1)C(=O)NO` [Compound 181] showed an MIC MH 13093 of 0.8 µg/mL (≈ 1.74 µM).

The next assay has as its system Pasteurella multocida PM 6267 (P 2225 (L386), reference strain, mouse infection strain). In words: MIC, broth-microdilution (CLSI VET01-A4), strain PM 6267. Format: cell-based. As to conditions: Pasteurella multocida strain PM 6267, broth-microdilution; unit assumed. An outline of the steps: as §1
`CC(C)(C(NC(=O)c1ccc(C#Cc2ccc(CNCc3cccnc3)cc2)cc1)C(=O)NO)[N+](=O)[O-]` (stereo not shown) [Compound 286] had an MIC PM 6267 of 0.8 µg/mL (≈ 1.6 µM).

In the case of `COCCNCc1ccc(C#Cc2ccc(C(=O)N[C@@H](C(C)=O)C(=O)NO)cc2)cc1` [Compound 398], the MIC PM 6267 turned out to be 25 µg/mL (≈ 59 µM).

For the molecule `CSC(C)(C)[C@H](NC(=O)c1ccc(C#Cc2ccc(CNCC(F)(F)F)nc2)cc1)C(=O)NO` [Compound 345], the MIC PM 6267 worked out at 0.8 µg/mL (≈ 1.62 µM).

As to `CC[C@H](C)[C@H](NC(=O)c1ccc(C#Cc2ccc(CNCc3ccco3)cc2)cc1)C(=O)NO` [Compound 181], the MIC PM 6267 worked out at 0.4 µg/mL (≈ 0.87 µM).

A further assay concerns Pasteurella multocida PM 6391 (ATCC 43137, reference strain). The assay can be described thus: MIC, broth-microdilution (CLSI VET01-A4), strain PM 6391. The note with it: Pasteurella multocida strain PM 6391, broth-microdilution; unit assumed. Format: cell-based. An outline of the steps: as §1
As for `CC(C)(C(NC(=O)c1ccc(C#Cc2ccc(CNCc3cccnc3)cc2)cc1)C(=O)NO)[N+](=O)[O-]` (stereo not shown) [Compound 286], the MIC PM 6391 worked out at 0.8 µg/mL (≈ 1.6 µM).

`COCCNCc1ccc(C#Cc2ccc(C(=O)N[C@@H](C(C)=O)C(=O)NO)cc2)cc1` [Compound 398] showed an MIC PM 6391 of 0.2 µg/mL (≈ 0.472 µM).

In turn, `CSC(C)(C)[C@H](NC(=O)c1ccc(C#Cc2ccc(CNCC(F)(F)F)nc2)cc1)C(=O)NO` [Compound 345] yielded an MIC PM 6391 of 0.8 µg/mL (≈ 1.62 µM).

`CC[C@H](C)[C@H](NC(=O)c1ccc(C#Cc2ccc(CNCc3ccco3)cc2)cc1)C(=O)NO` [Compound 181] displayed an MIC PM 6391 of 0.8 µg/mL (≈ 1.74 µM).

The subject of another assay is Pasteurella multocida PM 10775 (080130003051, BRD field isolate). The assay can be described thus: MIC, broth-microdilution (CLSI VET01-A4), strain PM 10775. As to conditions: Pasteurella multocida strain PM 10775, broth-microdilution; unit assumed. It is filed as cell-based. An outline of the steps: as §1
Take `CC(C)(C(NC(=O)c1ccc(C#Cc2ccc(CNCc3cccnc3)cc2)cc1)C(=O)NO)[N+](=O)[O-]` (stereo not shown) [Compound 286]: the MIC PM 10775 is at most 0.1 µg/mL.

On to `COCCNCc1ccc(C#Cc2ccc(C(=O)N[C@@H](C(C)=O)C(=O)NO)cc2)cc1` [Compound 398], for which the MIC PM 10775 turned out to be 3.1 µg/mL (≈ 7.32 µM).

Regarding `CSC(C)(C)[C@H](NC(=O)c1ccc(C#Cc2ccc(CNCC(F)(F)F)nc2)cc1)C(=O)NO` [Compound 345], the MIC PM 10775 was at most 0.1 µg/mL.

`CC[C@H](C)[C@H](NC(=O)c1ccc(C#Cc2ccc(CNCc3ccco3)cc2)cc1)C(=O)NO` [Compound 181]: the MIC PM 10775 was at most 0.1 µg/mL.

A further assay has as its system Pasteurella multocida PM 12080 (IV102277-0093, BRD field isolate). In words: MIC, broth-microdilution (CLSI VET01-A4), strain PM 12080. Format: cell-based. The note with it: Pasteurella multocida strain PM 12080, broth-microdilution; unit assumed. In outline: as §1
For `CC(C)(C(NC(=O)c1ccc(C#Cc2ccc(CNCc3cccnc3)cc2)cc1)C(=O)NO)[N+](=O)[O-]` (stereo not shown) [Compound 286], the MIC PM 12080 was at most 0.1 µg/mL.

Molecule `COCCNCc1ccc(C#Cc2ccc(C(=O)N[C@@H](C(C)=O)C(=O)NO)cc2)cc1` [Compound 398] yielded an MIC PM 12080 of 1.6 µg/mL (≈ 3.78 µM).

Regarding `CSC(C)(C)[C@H](NC(=O)c1ccc(C#Cc2ccc(CNCC(F)(F)F)nc2)cc1)C(=O)NO` [Compound 345], the MIC PM 12080 stood at 0.4 µg/mL (≈ 0.809 µM).

In turn, `CC[C@H](C)[C@H](NC(=O)c1ccc(C#Cc2ccc(CNCc3ccco3)cc2)cc1)C(=O)NO` [Compound 181] registered an MIC PM 12080 of 0.4 µg/mL (≈ 0.87 µM).
